This is an account of results in US20240391912A1, “MORPHIC FORMS OF CFT7455 AND METHODS OF MANUFACTURE THEREOF” (C4 THERAPEUTICS, INC., priority 2022, published 2024).

A word on the solubility: it is the concentration that dissolves in the medium under given conditions. A high value points to much dissolved substance.

Values after ≈ are worked out from the molar mass of the structure shown.

Data set [1] in a line: Approximate solubility of Compound 5 polymorphs in EtOH:DCM (v:v=1:4). Particulars: 25° C.; for Approximate solubility (visual appearance): EtOH:DCM (v:v = 1:4), listed as Form VI. It is filed as physicochemical. As to the method:
Four polymorphs (Form V, Form VI, Form VII and Form VIII) were weighed respectively and a suitable amount of solvent mixture EtOH:DCM (v:v=1:4) was added. The obtained samples were stirred at a rate of 400 rpm at 25° C.

Data set [2] in a line: Bulk stability of Compound 5 Form VI and Form VIII at 25° C./60% RH, open container, 1 week (XRPD, HPLC, color). It is filed as physicochemical. As to the method:
Compound 5 Form VI and Form VIII were placed at 25° C./60% RH in an open container over 1 week. Samples after the stress were characterized by XRPD and HPLC and inspected for color change.

A short description of data set [3]: Solubility of Compound 5 Form VI and Form VIII at 25° C., equilibration for 24 hours (HPLC; XRPD of residual solids). It counts as physicochemical. As to the method:
11 mg (for 20 mg/mL target concentration) or 22 mg (for 50-60 mg/mL target concentration) of Compound 5 Form VI and Form VIII (equivalent to 10 mg or 20 mg of anhydrate free base) was weighed into a 4 mL glass vial, respectively. Up to 0.5 mL of potential eluent medium was added. The obtained suspensions/solutions were stirred at 25° C. at 400 rpm for 24 hours and then centrifuged at 25° C. at 14,000 rpm for 5 minutes. The residual solids were characterized by XRPD to determine the physical form. The supernatants (0.1 mL) were evaporated at about 22-25° C./30-60% RH.

Data set [4] is described as follows: Characterization of polymorphs and pseudo-polymorphs of Compound 5. It counts as physicochemical.
Data set [5] relates to relapsed/refractory (r/r) MCL. Particulars: r/r subjects with MCL following bortezomib; cited from earlier work.
Setting [6] is: THF/Heptane (v:v = 1:2), 25° C., 24 hours, target conc. 20 mg/mL.
Where [7] appears, read: THF/water (v:v = 1:2.5), 25° C., 24 hours, target conc. 20 mg/mL, listed as Form VI.

As for `O=C1CCC(N2C(=O)c3cccc4c(Cc5ccc(CN6CCOCC6)cc5)ccc2c34)C(=O)N1` (racemic) [Compound 5 Form VI], the “Approximate solubility (visual appearance)” value in data set [1] (concentration 10 mg/mL) and in data set [1] (concentration 20 mg/mL) was “Suspension” throughout. Further, the “approximate solubility compared with Form V and Form VII” value in data set [1] (EtOH:DCM (v:v=1:4), visual observation) was “higher solubility”. Moreover, the “bulk stability, chemical” value in data set [2] was “chemically stable”. Also, the “bulk stability, physical (form)” value in data set [2] (listed as Form VI) was “good physical stability”. Besides, in data set [2] (solid state, initial purity 93.1% (Form VI), 95.6% (Form VIII), listed as Form VI), the “Bulk (HPLC) Purity” value was 93.1%. Further, the “Bulk (XRPD)” value in data set [2] (solid state, listed as Form VI) is listed as “Form VI”. In addition, the “solubility” value in data set [3] (EtOH/DCM (v:v = 1:4), 25° C., 24 hours, target conc. 50-60 mg/mL, LOQ 0.8 μg/mL, listed as Form VI) is on record as 27 mg/mL (≈ 57.5 mM); in data set [3] (MeOH/DCM (v:v = 1:2), 25° C., 24 hours, target conc. 50-60 mg/mL, LOQ 0.8 μg/mL) it was 30 mg/mL (≈ 63.9 mM); in data set [3] (setting [6]), 0.1 mg/mL (≈ 0.213 mM); in data set [3] (THF/IPA (v:v = 1:2), 25° C., 24 hours, target conc. 20 mg/mL, listed as Form VI), 0.9 mg/mL (≈ 1.92 mM); in data set [3] (setting [7]), 4 mg/mL (≈ 8.52 mM); in data set [3] (in EtOH/DCM (v:v=1:4), about 25° C., 24 h, listed as Form VI), around 27 mg/mL (≈ 57.5 mM). The solubility entry is on record as “about 30 mg/mL” in data set [3] (in MeOH/DCM (v:v=1:2), about 25° C., 24 h); around 30 mg/mL (≈ 63.9 mM) in data set [3] (in MeOH:DCM (v:v=1:2) and EtOH:DCM (v:v=1:4), 25° C. for 24 h, listed as Form VI); around 1 mg/mL (≈ 2.13 mM) in data set [3] (in THF:IPA (v:v=1:2), THF:Heptane (v:v=1:2) and THF:Heptane (v:v=1:2.5), 25° C. for 24 h). For the same molecule, the “physical form after solubility test” value is listed as “converted to almost the amorphous form” in data set [3] (MeOH:DCM (v:v=1:2) and EtOH:DCM (v:v=1:4), 25° C., 24 h); “no form change” in data set [3] (THF:2-propanol (v:v=1:2), THF:Heptane (v:v=1:2) and THF:water (v:v=1:2.5), 25° C., 24 h). Moreover, the “XRPD of residual solids” value in data set [3] (setting [6]) is reported as “Form VI”; in data set [3] (THF/IPA (v:v = 1:2), 25° C., 24 hours, target conc. 20 mg/mL) it was “Form VI”; in data set [3] (setting [7]), “Form VI”. Besides, the “Evaporation of solvent from (by DSC)” value in data set [4] (DSC) is reported as “about 154° C.;”. The “Dehydration (by DSC)” value in data set [4] (DSC, listed as Form VI) is “about 6° C.;”. Further, the “Enthalpy (by DSC)” value in data set [4] (DSC, listed as Form VI) came to 35 J/g. In addition, the “Melting onset Tonset (by DSC)” value in data set [4] (DSC, listed as Form VI) is reported as “Tonset 226.4° C.,”. Further, the “Weight loss (by TGA)” value in data set [4] (at 215° C.) stood at 9.7% at 215 °C. The “Residual ion (by IC): Br−” value in data set [4] (listed as Form VI) is recorded as “Br^−: 0.22 equiv”. Besides, the “Residual ion (by IC): Cl−” value in data set [4] (listed as Form VI) is recorded as “Cl^−: 0.08 equiv.;”. For the same molecule, the “Residual ion (by IC): Li+” value in data set [4] (listed as Form VI) is recorded as “Li^+: 0.17 equiv.;”. Besides, the “Residual ion (by IC): Na+” value in data set [4] (listed as Form VI) was “Na+: 0.02 equiv”.

For `Nc1cccc2c1CN(C1CCC(=O)NC1=O)C2=O` (centres unmarked) [lenalidomide], in data set [5], the “median duration of response [DOR]” value is on record as 16.6 months and the “overall response rate [ORR]” value was 28%.
